From patent publication US20120258980A1, “Antibacterial Agent for Drug-Resistant Bacteria, Method for Screening for Same, and Use of Same” (priority 2009, published 2012)
Values after ≈ are worked out from the molar mass of the structure shown.

Assays:
[1] = test system: methicillin-susceptible S. aureus (MSSA), MRSA and mutants thereof; assay: MIC measurement, Test Example 3 (MSSA, MRSA and sequential gyrA/grlA quinolone-resistant mutants); assay type: cell-based, Staphylococcus aureus
Source text: That is, the first-step quinolone-resistant mutants are bacterial strains which are the same as their parent strains (clinical isolates) except that the genes shown in the corresponding parts of Table 1-1 are mutated. The second-step quinolone-resistant mutants are bacterial strains which are the same as the first-step quinolone-resistant mutants except that the genes shown in the corresponding parts of Table 1-1 are further mutated. The third-step quinolone-resistant mutants are bacterial strains which are the same as the second-step quinolone-resistant mutants except that the genes shown in the corresponding parts of Table 1-1 are further mutated. The fourth-step quinolone-resistant strain is a bacterial strain which is the same as the third-step quinolone-resistant mutant bacteria except that the gene shown in the corresponding part of Table 1-1 is further mutated.
(§1) Each of the bacterial strains listed in Table 1-1 was shake-cultured at 37° C. overnight in 4 mL of a medium (Tryptical Soy Broth: TSB, product of Becton Dickinson and Company). FDA209P was used as a control.
(§2) After completion of culturing, the resultant culture was suspended in a cation-adjusted Mueller Hinton Broth (CAMHB, product of Becton Dickinson and Company). Then, the obtained bacterial culture was adjusted in absorbance with the CAMHB so that the absorbance at 578 nm of the bacterial culture was adjusted to 0.3 measured by an absorption spectrometer. In addition, the resultant bacterial culture was 500-fold diluted with the CAMHB.
(§3) Each of the 500-fold diluted, pre-cultured bacterial cultures was added at 50 μL/well to the CAMHB containing the quinolones and the nybomycins at various concentrations (50 μL/well), followed by statically culturing at 37° C. overnight.
(§4) After completion of culturing, the growth of the bacteria was visually determined based on turbidity to measure MIC in each bacterial strain.

[2] = test system: Enterococcus faecalis; assay: MIC measurement, Test Example 6 (enterococcus); assay type: cell-based
Description: as §1, §2, §3, §4
Quinolones and nybomycins were evaluated for antibacterial activity against Enterococcus faecalis shown in Table 6, wherein the other strains than NCTC12201 and NCTC12203 were subdivided from Shionogi & Co., Ltd (note that these strains are available also from the Department of Bacteriology, Juntendo University). The NCTC strains are both vancomycin-resistant E. faecalis and available from the National Collection of Type Cultures (NCTC).

[3] = test system: MRSA, CA-MRSA and MSSA of Staphylococcus aureus; assay: MIC measurement, Test Example 4 (MRSA, CA-MRSA and MSSA strains); assay type: cell-based
Description: as §1, §2, §3, §4
Glycopeptides, imipenem, quinolones and nybomycins were studied for antibacterial activity against the bacterial strains listed in Table 2-1; i.e., MRSA, CA-MRSA and MSSA of Staphylococcus aureus.

Cl.O=C(O)c1cn(C2CC2)c2cc(N3CCNCC3)c(F)cc2c1=O [CPFX, ciprofloxacin chloride]
MIC ([1]; MR5867-1, first-step quinolone-resistant mutant, grlA E84K): 2 µg/mL
MIC ([1]; MR5867-2, second-step mutant, further gyrA S84L): 32 µg/mL
MIC ([1]; MS5935-1, first-step quinolone-resistant mutant, grlA S80F): 2 µg/mL
MIC ([1]; MS5935-2, second-step mutant, further gyrA S84L): 32 µg/mL
MIC ([1]; MS5952-1, first-step quinolone-resistant mutant, grlA S80Y): 2 µg/mL
MIC ([1]; MS5952-2, second-step mutant, further gyrA S84L): 8 µg/mL
MIC ([1]; MS5952-3, third-step mutant, further grlA A116V): 64 µg/mL
MIC ([2]; E. faecalis 36-15672, quinolone-susceptible enterococci): 1 µg/mL
MIC ([2]; E. faecalis 36-15673, quinolone-susceptible enterococci): 1 µg/mL
MIC ([2]; E. faecalis 36-15678, quinolone-susceptible enterococci): 1 µg/mL
MIC ([2]; E. faecalis 36-15686, quinolone-resistant enterococci): 128 µg/mL
MIC ([2]; E. faecalis 36-15688, quinolone-susceptible enterococci): 1 µg/mL
MIC ([2]; E. faecalis 36-15694, quinolone-resistant enterococci): 32 µg/mL
MIC ([2]; E. faecalis 36-15696, quinolone-susceptible enterococci): 1 µg/mL
MIC ([2]; E. faecalis 36-15703, quinolone-resistant enterococci): 32 µg/mL
MIC ([2]; E. faecalis 36-15716, quinolone-resistant enterococci): 128 µg/mL
MIC ([2]; E. faecalis 36-15718, quinolone-susceptible enterococci): 1 µg/mL
MIC ([2]; E. faecalis 36-15720, quinolone-susceptible enterococci): 2 µg/mL
MIC ([2]; E. faecalis 36-15722, quinolone-resistant enterococci): 64 µg/mL
MIC ([2]; E. faecalis 36-15726, quinolone-resistant enterococci): 64 µg/mL
MIC ([2]; E. faecalis 36-15730, quinolone-susceptible enterococci): 2 µg/mL
MIC ([2]; E. faecalis 36-15736, quinolone-susceptible enterococci): 1 µg/mL
MIC ([2]; E. faecalis 36-15741, quinolone-susceptible enterococci): 2 µg/mL
MIC ([2]; E. faecalis NCTC12201, vancomycin-resistant (VRE), quinolone-susceptible enterococci): 1 µg/mL
MIC ([2]; E. faecalis NCTC12203, vancomycin-resistant (VRE), quinolone-susceptible enterococci): 1 µg/mL
MIC ([3]; ISA12-1, MRSA): 0.5 µg/mL
MIC ([3]; ISA35-1, MRSA): 4 µg/mL
MIC ([3]; ISA51-1, MSSA): 0.5 µg/mL
MIC ([3]; ISA58-1, MRSA): 0.5 µg/mL
MIC ([3]; ISA73-1, MSSA): 0.5 µg/mL
MIC ([3]; KBSA34, MRSA): 0.5 µg/mL
MIC ([3]; KBSA72, MRSA): 128 µg/mL
MIC ([3]; KBSA96, MRSA): 32 µg/mL
MIC ([3]; KBSA171, MRSA): 64 µg/mL
MIC ([3]; KSA24, MRSA): 32 µg/mL
MIC ([3]; KSA31, MRSA): 8 µg/mL
MIC ([3]; KSA36, MRSA): 128 µg/mL
MIC ([3]; USA300 FPR3757, CA-MRSA): 16 µg/mL

C[C@@H](O)[C@H]1C(=O)N2C(C(=O)O)=C(SCCN=CN)C[C@H]12 [IPM, imipenem]
MIC ([3]; Staphylococcus aureus, ATCC 29213 / MRSA / MSSA, ATCC 29213, MSSA): < 0.03 µg/mL
MIC ([3]; Staphylococcus aureus, COL, MRSA): 64 µg/mL (≈ 214 µM)
MIC ([3]; Staphylococcus aureus, FDA209P / MRSA / MSSA, FDA209P, MSSA): < 0.03 µg/mL
MIC ([3]; Staphylococcus aureus, ISA12-1, MRSA): 16 µg/mL (≈ 53.4 µM)
MIC ([3]; Staphylococcus aureus, ISA12-2, MRSA): 16 µg/mL (≈ 53.4 µM)
MIC ([3]; Staphylococcus aureus, ISA35-1, MRSA): 1 µg/mL (≈ 3.34 µM)
MIC ([3]; Staphylococcus aureus, ISA37-1, MSSA): 0.125 µg/mL (≈ 0.418 µM)
MIC ([3]; Staphylococcus aureus, ISA49-1, MSSA): 0.25 µg/mL (≈ 0.835 µM)
MIC ([3]; Staphylococcus aureus, ISA51-1, MSSA): 0.25 µg/mL (≈ 0.835 µM)
MIC ([3]; Staphylococcus aureus, ISA56-3, MRSA): 16 µg/mL (≈ 53.4 µM)
MIC ([3]; Staphylococcus aureus, ISA58-1, MRSA): 0.125 µg/mL (≈ 0.418 µM)
MIC ([3]; Staphylococcus aureus, ISA62-1, MRSA): 2 µg/mL (≈ 6.68 µM)
MIC ([3]; Staphylococcus aureus, ISA73-1, MSSA): 0.25 µg/mL (≈ 0.835 µM)
MIC ([3]; Staphylococcus aureus, KBSA32, MRSA): 0.25 µg/mL (≈ 0.835 µM)
MIC ([3]; Staphylococcus aureus, KBSA34, MRSA): 0.25 µg/mL (≈ 0.835 µM)
MIC ([3]; Staphylococcus aureus, KBSA72, MRSA): 0.125 µg/mL (≈ 0.418 µM)
MIC ([3]; Staphylococcus aureus, KBSA96, MRSA): 0.25 µg/mL (≈ 0.835 µM)
MIC ([3]; Staphylococcus aureus, KBSA171, MRSA): 0.25 µg/mL (≈ 0.835 µM)
MIC ([3]; Staphylococcus aureus, KSA24, MRSA): 0.5 µg/mL (≈ 1.67 µM)
MIC ([3]; Staphylococcus aureus, KSA31, MRSA): 0.125 µg/mL (≈ 0.418 µM)
MIC ([3]; Staphylococcus aureus, KSA36, MRSA): 0.5 µg/mL (≈ 1.67 µM)
MIC ([3]; Staphylococcus aureus, MRSA / MSSA / NCTC 8325, NCTC 8325, MSSA): ≤ 0.063 µg/mL
MIC ([3]; Staphylococcus aureus, MRSA / MSSA / USA300, USA300 FPR3757, CA-MRSA): 2 µg/mL (≈ 6.68 µM)
MIC ([3]; Staphylococcus aureus, MW2, CA-MRSA): 2 µg/mL (≈ 6.68 µM)
MIC ([3]; Staphylococcus aureus, N315, MRSA): 8 µg/mL (≈ 26.7 µM)
